Measured values reported in US5527810A, “Decahydroisoquinoline compounds as excitatory amino acid receptor antagonists” (Eli Lilly and Company, priority 1994, dated 1996).

How the values were obtained:
[1] = test system: formalin model; details: cited from earlier work
[2] = test system: AMPA receptor; test: Antagonism of cortical wedge depolarization induced by AMPA; assay type: cell-based, rat; details: for IC50: AMPA 40 μM, mean ± standard error (n=3)
Description: (§1) The depolarization of rat cortical wedges was used to test the selectivity and potency of the formula I compounds as AMPA and NTMDA antagonists using a technique similar to that described by Harrison and Simmonds. Harrison and Simmonds, Bri. J. Pharmacol., 84, 381-391 (1984). Generally, 4-ml aliquots of NMDA (40 μM), AMPA (40 μM), and kainate (10 μM) were superfused (2 ml/min.) on the grey matter at intervals of 15-20 minutes until stable responses were attained. The tissue was then exposed for 15 minutes to various concentrations of the formula I compounds before retesting the agonists. The IC50 values were calculated from linear regression of log dose-response curves, each point the mean of at least three observations on separate slices from more than one animal.

[3] = target: kainic acid receptor; test: Kainate receptor radioligand binding, displacement of [3H]KA (washed synaptosomal membranes from rat forebrain); details: [3H]kainate 5 nM, pH 7.4; mean ± standard error (n=3); 21.0 of compound 2 is a single experiment (footnote d)
Description: The formula I compounds were tested for their ability to inhibit NMDA, AMPA, and kainic acid receptor binding to rat membranes in a radioligand binding assay using [^3 H]CGS19755, [^3 H]AMPA, and [^3 H]KA. For all radioligand binding assays, male Sprague-Dawley rats were used. Displacement of the specific binding [^3 H]CGS19755 (10 nM) to Triton-X-treated synaptosomal membranes of rat forebrain was used to determine NMDA receptor affinity. Non-specific binding was determined using 10 μM L-glutamate. Samples were incubated in an ice-bath for 30 minutes, and bound ligand was separated from the free ligand by rapid filtration through WHATMAN GF/B glass fiber filters. Murphy et al, British J. Pharmacol., 95, 932-938 (1988). Kainate binding was performed using washed synaptosomal membranes from the rat forebrain as described by Simon et al. Simon et al, J. Neurochem., 26, 141-147 (1976). Tritiated kainate (5 nM) was added to 50 mM Tris-HCl buffer (pH 7.4 at 4° C.) containing 200-300 μg/ml of tissue protein. Samples were incubated for 30 minutes in an ice-bath, then rapidly filtered using a Brandel cell harvester and WHATS GF/C filters. Filters were washed twice with 3 ml of cold buffer. Non-specific binding was determined using 100 μM non-labeled kainate. […] Non-specific binding was determined with 10 μM non-labeled […]. […]

[4] = target: AMPA receptor; test: AMPA receptor radioligand binding, displacement of [3H]AMPA (crude membranes of rat forebrain)
Description: (§2) The formula I compounds were tested for their ability to inhibit NMDA, AMPA, and kainic acid receptor binding to rat membranes in a radioligand binding assay using [^3 H]CGS19755, [^3 H]AMPA, and [^3 H]KA. For all radioligand binding assays, male Sprague-Dawley rats were used. Displacement of the specific binding [^3 H]CGS19755 (10 nM) to Triton-X-treated synaptosomal membranes of rat forebrain was used to determine NMDA receptor affinity. Non-specific binding was determined using 10 μM L-glutamate. Samples were incubated in an ice-bath for 30 minutes, and bound ligand was separated from the free ligand by rapid filtration through WHATMAN GF/B glass fiber filters. Murphy et al, British J. Pharmacol., 95, 932-938 (1988). Kainate binding was performed using washed synaptosomal membranes from the rat forebrain as described by Simon et al. Simon et al, J. Neurochem., 26, 141-147 (1976). Tritiated kainate (5 nM) was added to 50 mM Tris-HCl buffer (pH 7.4 at 4° C.) containing 200-300 μg/ml of tissue protein. Samples were incubated for 30 minutes in an ice-bath, then rapidly filtered using a Brandel cell harvester and WHATS GF/C filters. Filters were washed twice with 3 ml of cold buffer. Non-specific binding was determined using 100 μM non-labeled kainate. The binding of [^3 H]AMPA (5 nM) was conducted with crude membranes of rat forebrain in the presence of 100 mM KSCN as described by Nielson et al. Nielson et al, Eur. J. Med. Chem. Chem. Ther., 21, 433-437 (1986). Non-specific binding was determined with 10 μM non-labeled AHPA. The concentration of the formula I compound that inhibited 50% binding (IC50, mean ± standard error, n=3) as calculated by linear regression of displacement data transformed to the Hill equation as described by Bennett. Bennett, Neurotransmitter Receptor Binding, 57-90 (1978).

[5] = test system: kainate (KA) receptor; test: Antagonism of cortical wedge depolarization induced by kainate; assay type: cell-based, rat; details: kainate 10 μM; mean ± standard error (n=3); 15 min
Description: as §1

[6] = target: NMDA receptor; test: NMDA receptor radioligand binding, displacement of [3H]CGS19755 (rat forebrain synaptosomal membranes)
Description: as §2

[7] = test system: NMDA receptor; test: Antagonism of cortical wedge depolarization induced by NMDA; assay type: cell-based, rat; details: for IC50: NMDA 40 μM, mean ± standard error (n=3)
Description: as §1

[8] = test system: CNS ischemia; details: cited from earlier work
[9] = test system: Huntington's Disease; details: in vivo; cited from earlier work
[10] = test system: sound induced seizures; details: DBA/2 mice; cited from earlier work
[11] = test system: warm water tail withdrawal; details: rhesus monkeys; cited from earlier work
[12] = test system: focal cerebral ischemia; details: cited from earlier work
[13] = test system: focal cerebral ischemia; details: cited from earlier work; remark: listed apart in the source
[14] = test system: global ischemia; details: in vivo; cited from earlier work
[15] = test system: global and focal ischemic damage; details: in vivo; cited from earlier work
[16] = [3H]AMPA 5 nM, 100 mM KSCN, mean ± standard error (n=3), read-out: IC50 AMPA (receptor binding)
[17] = [3H]CGS19755 10 nM, mean ± standard error (n=3), 0.96 of compound 2 is a single experiment (footnote d), read-out: IC50 NMDA (receptor binding)

NC(CCCP(=O)(O)O)C(=O)O (racemic) [DL-AP5]
analgesic in mouse formalin model [1]: analgesic

O=C(O)[C@@H]1C[C@H]2C[C@@H](c3nn[nH]n3)CC[C@H]2CN1 (relative stereo) [Compound 1, (3SR, 4aRS, 6SR, 8aRS)-6-(1(2)H-Tetrazole-5-yl)decahydroisoquinoline-3-carboxylic Acid]
IC50 [2]: 40.9 ± 5.2 µM | IC50 KA (receptor binding) [3]: 31.84 ± 2.31 µM | IC50 [4, 16]: 12.8 ± 0.27 µM | IC50 KA (cortical wedge depolarization) [5]: > 100 µM | IC50 [6, 17]: 1.56 ± 0.23 µM | IC50 [7]: 7.5 ± 0.7 µM

O=C(O)[C@H]1C[C@@H](Cc2nn[nH]n2)CCN1 (relative stereo) [LY233053]
protection in CNS ischemia model in rabbits [8]: provided protection

O=C(O)[C@@H]1C[C@H]2C[C@@H](CP(=O)(O)O)CC[C@H]2CN1 (relative stereo) [LY274614]
neuroprotection in animal model of Huntington's Disease [9]: neuroprotective

C/C(=C\C(N)C(=O)O)CP(=O)(O)O (stereo not shown) [CGP 37849]
anticonvulsant against sound induced seizures [10]: anticonvulsant

O=C(O)[C@@H]1C[C@H](CP(=O)(O)O)CCN1 [CGS 19755]
analgesic in warm water tail withdrawal procedure [11]: analgesic | protection in focal cerebral ischemia model in rats [12]: provided protection

O=C(O)[C@@H]1C[C@H]2C[C@@H](c3nn[nH]n3)CC[C@H]2CN1 [Compound 2, (3S, 4aR, 6S, 8aR)-6-(1(2)H-Tetrazole-5-yl)decahydroisoquinoline-3-carboxylic Acid]
IC50 [2]: 13.2 ± 2.4 µM | AMPA receptor antagonism ([2]; statement in words, Table II): AMPA and NMDA receptor antagonists | IC50 KA (receptor binding) [3]: 21.0 µM | IC50 [4, 16]: 5.72 ± 0.89 µM | IC50 ([4]; text summary of Table I, read-out: IC50 for displacement of 3H-AMPA, summary statement): < 10 µM | IC50 KA (cortical wedge depolarization) [5]: > 100 µM | IC50 [6, 17]: 0.96 µM | IC50 ([6]; text summary of Table I, read-out: IC50 for displacement of [3H]CGS19755, summary statement): < 10 µM | IC50 [7]: 4.1 ± 0.3 µM | NMDA receptor antagonism ([7]; statement in words, Table II): AMPA and NMDA receptor antagonists

O=C(O)[C@H]1CN(C/C=C/P(=O)(O)O)CCN1 [D-(-)CPP-ene]
protection in focal cerebral ischemia model in cats [13]: provided protection | anticonvulsant against sound induced seizures [10]: anticonvulsant

CC1=NN=C(c2ccc(N)cc2)c2cc3c(cc2C1)OCO3 [GKYI 52466]
neuroprotection in rat global ischemia models [14]: effective neuroprotective agent

NS(=O)(=O)c1cccc2c1c([N+](=O)[O-])cc1nc(O)c(O)nc12 [NBQX, 2,3-dihydroxy-6-nitro-7-sulfamoylbenzo[f]quinoxaline]
prevention of global and focal ischemic damage [15]: effective in preventing global and focal ischemic damage

C[C@]12N[C@H](Cc3ccccc31)c1ccccc12 [dizocilpine]
protection in focal cerebral ischemia model in cats [13]: provided protection | protection in focal cerebral ischemia model in rats [12]: provided protection
